# Test results published in patent publication US20200255492A1, “LEPTIN PEPTIDES AND THEIR USE FOR TREATING NEUROLOGICAL DISORDERS” (UNIVERSITY OF DUNDEE, priority 2017, published 2020).
# Tested on: mitochondria
# Assay: MitoRed analysis of mitochondrial morphology after 6-OHDA (cellular Parkinson's Disease model)
# Format: cell-based
# Settings: 100 μM; 1 hour
# Procedure: Cultures were established on 3 separate occasions in quadruplicate and stained with MitoRED to identify mitochondria after 1 hour of treatment. Statistical significance relative to untreated control is denoted with ** where P<0.01 and *** where P<0.001. Representative images of 100 μM 6-OHDA-treated MitoRED stained cultures (C) and 100 μM 6-OHDA and leptin116-130 co-treated MitoRED stained cultures are shown. Scale bar represents […].
# The human neuroblastoma cell line, SH-SY5Y (ECACC, UK) was maintained in Dulbecco's Modified Eagle Medium supplemented with glucose ([…]) and 10% (v/v) cosmic calf serum (Fisher Scientific, UK) at 37° C. in a humidified atmosphere of 5% CO2, 95% air and allowed to reach 70-80% confluence before seeding. Cells (passage 10-18) were plated at 2×10^5 cells on 13 mm borosilicate class coverslips or at 10 000 cells per well in 96 well tissue culture plates (Nunc, VWR, UK) prior to treatment. Reagents used were (from Sigma UK unless stated) 1 nM human leptin, leptin (116-121), leptin (117-122) and leptin (117-125); 0.0001-1 nm murine leptin fragments leptin (116-121), leptin (117-122) and leptin (116-130); 100 μM 6-hydroxydopamine; 10 μM CuCl2; […] Aβ1-42.
# Cells were treated with pre-warmed cell culture medium containing 1 μM MitoRed ((9-[2-(4′-Methylcoumarin-7′-oxycarbonyl)phenyl]-3,6-bis(diethylamino)xanthylium chloride) and returned to the incubator for 45 minutes. Following fixation in NBF for 15 minutes, cells were washed 3 times in PBS. Coverslips were mounted in fluorescence mountant onto microscope slides and imaged on the Zeiss Axio MR2 microscope. The mean mitochondrial area and index of fragmentation (number of mitochondria: total area of mitochondrial material) were calculated using Fiji.
structure (smiles),measurement,value
"NCCc1cc(O)c(O)cc1O [6-OHDA, 6-hydroxydopamine, reference compound]","cross-sectional area of individual mitochondria, 6-OHDA alone",increase in the cross-sectional area of individual mitochondria
same,"mitochondrial fragmentation, 6-OHDA alone",decrease in mitochondrial fragmentation
